From patent US20250075218A1, “HIF1A OR GLUT1 INHIBITION IN INFLAMMATORY SKIN DISEASES” (New York University, priority 2023, published 2025)

Key:
Format in all cases: in vivo, human
PsO patient = assay: Clinical metadata of pre- and post-secukinumab-treated patient
Description: (§1) IL-17A blocking therapies are lauded for their clinical success, often achieving complete remission of skin plaques within 6 months of treatment (Ghoreschi et al., 2021). This remarkable clinical response provided a unique opportunity to examine if HIF1α levels normalize with successful therapy. Therefore, pre- and post-treatment biopsies were obtained from a secukinumab (anti-IL-17A) treated PsO patient who achieved complete clinical remission (Psoriatic Area and Severity Score (PASI) 100, or 100% psoriasis plaque clearance) (FIG. 3A and Table 1). Pre- and 12-weeks post-therapy biopsies from both lesional and non-lesional skin were taken <0.5 cm apart from the same patient, ensuring that post-treatment biopsies were taken from resolved lesions and not adjacent uninvolved skin (FIG. 8A).
Human skin samples. Following anesthetization with 2% lidocaine injection, 4 mm full-thickness punch biopsies were performed on lesional skin, and matched non-lesional skin located contralaterally. In healthy volunteers, skin biopsy samples were obtained from the trunk and/or extremities. Post-therapy biopsies from secukinumab-treated patients were taken 5 to 10 mm away from the original biopsy site within the original lesion area, discerned by hyperpigmentation, and at contralateral non-lesional skin.

[1] = test system: HIF1A, IL17RA, and IL17RC; assay: Spatial transcriptomics of pre- and post-secukinumab lesional and non-lesional skin; conditions: following therapy, 12 weeks; one patient
Description: as §1, with “Pre- and 12-weeks post-therapy biopsies from both lesional and non-lesional skin were taken <0.5 cm apart from the same patient, ensuring that post-treatment biopsies were taken from resolved lesions and not adjacent uninvolved skin (FIG. 8A).” left out
When compared to contralateral non-lesional skin, the PsO lesion was enriched for HIF1A, IL17RA, and IL17RC (FIGS. 3B and 8H). […] As a complementary analysis, HIF1α protein expression was measured in a cohort of 10 patients treated with etanercept (anti-TNFα) that achieved response (PASI 75 or greater) at 12 weeks (Table 2) (Stinco et al., 2019). […]
Spatial transcriptomics. […] Spot selection and image alignment: Following probe cleavage, fluorescent images were taken on a Hamamatsu NanoZoomer whole slide fluorescence scanner. […] The Space Ranger mkfastq function was used for sample demultiplexing and converting spatial barcodes and reads into FASTQ format. […]

[2] = test system: HIF1α-inhibitor downregulated gene signature; assay: Transcriptional program response analyses to clinical trial data (GSVA, NCT01537432); conditions: baseline and 1, 4, 12 weeks of secukinumab or placebo
Description: The dramatic transcriptional response following BAY 87-2243 treatment prompted investigation of the role of HIF1α-modulated genes on PsO disease pathogenesis. Toward this end, HIF1α-modulated genes were projected onto a longitudinal analysis of the transcriptional response from 33 patients following either placebo (9 patients) or anti-IL-17A blocking (secukinumab) therapy (24 patients) (NCT01537432) (Krueger et al., 2019).
Transcriptional program response analyses to clinical trial data. Scoring methods: To evaluate if gene signatures derived from differential gene expression in human biopsy cultures or topical HIF1α inhibitor treatment in IMQ-treated murine model would be affected by anti-IL17 treatment, the genes down regulated by HIF1α inhibitor (HIF1α-signature) were projected into the longitudinal gene expression profiles of 31 psoriasis patients enrolled in a randomized clinical trial testing the efficacy of Secukinumab 300 mgs (n=22) versus Placebo (n=9) (Krueger et al., 2019). The overall expression/activity of the signatures was estimated using gene set variation analysis (GSVA). GSVA, a non-parametric and non-supervised method, estimated a sample-wise enrichment score for each gene set on the RCT cohorts. Such enrichment scores, representing overall gene set activity, were then modeled to evaluate the treatment effect and the association with treatment response. […]

[3] = post-treatment, 12 weeks, one patient (ST-15), pre-treatment value 5

## secukinumab
PsO patient; one secukinumab-treated PsO patient
  psoriasis plaque clearance (PASI 100, complete clinical remission): 100%
PsO patient; post-treatment, 12 weeks post-therapy, one patient (ST-15; AL and ANL samples), pre-treatment value 8
  Body surface area (BSA) with psoriasis (%): 0%
PsO patient; post-treatment, 12 weeks, one patient (ST-15), pre-treatment value 0
  Deformity: 0
PsO patient; post-treatment, 12 weeks, one patient (ST-15), pre-treatment value 1
  Enthesitis: 0
PsO patient; post-treatment, 12 weeks, one patient (ST-15), pre-treatment value 4
  Dactylitis: 0
PsO patient; [3]
  PASI: 0
  Phys GA (global): 1
PsO patient; post-treatment, 12 weeks, one patient (ST-15), pre-treatment value 11
  Swollen joint count (SJC): 0
PsO patient; post-treatment, 12 weeks, one patient (ST-15), pre-treatment value 12
  Tender joint count (TJC): 0
[1]
  expression of HIF1A, IL17RA, and IL17RC in resolved skin (post-treatment L): comparable to that of non-lesional skin
[2]
  GSVA score of gene signature downregulated by HIF1α inhibitor, treatment group vs placebo: significantly distinguished
